Data reported in patent publication US20250276993A1, “PSEUDO-DISACCHARIDE COMPOUNDS” (UNIVERSITEIT LEIDEN, priority 2022, published 2025).

Legend:
HPSE [1] = target: T1, HPSE (Homo sapiens, UniProt Q9Y251); experiment: HSPG digest assay, recombinant HPSE; assay type: biochemical
T1 sequence (Q9Y251 36-109 limits assumed): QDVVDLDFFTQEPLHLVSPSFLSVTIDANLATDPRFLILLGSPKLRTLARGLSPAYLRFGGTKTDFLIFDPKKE
T1 sequence (Q9Y251 158-543 limits assumed): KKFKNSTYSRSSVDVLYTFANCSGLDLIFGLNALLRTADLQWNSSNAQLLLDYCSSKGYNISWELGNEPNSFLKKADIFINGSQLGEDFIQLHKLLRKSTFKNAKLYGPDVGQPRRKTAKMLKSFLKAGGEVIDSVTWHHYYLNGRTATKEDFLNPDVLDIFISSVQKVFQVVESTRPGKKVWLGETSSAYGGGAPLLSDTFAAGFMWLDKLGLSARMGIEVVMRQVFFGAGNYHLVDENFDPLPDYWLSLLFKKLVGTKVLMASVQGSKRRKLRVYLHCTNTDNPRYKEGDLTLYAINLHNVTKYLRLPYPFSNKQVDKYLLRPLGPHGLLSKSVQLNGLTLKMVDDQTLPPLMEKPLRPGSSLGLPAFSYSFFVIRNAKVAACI
Procedure: ECM coated 35 mm culture dishes containing ^35S labelled HS were prepared as previously described (Vlodavsky et al., Curr. Protoc. Cell. Biol., Chapter 10, Unit 10, 14). Briefly, bovine corneal endothelial cells were plated at an initial density of 2×10^5 cells/ml, with 4% dextran T-40 (Sigma) included in the growth medium. Na2^35SO4 (25 μCi/ml) was added to the incubation medium on days 2 and 5 after seeding. On day 12, subendothelial ECM is exposed by dissolving the cells with PBS containing 0.5% Triton X-100 and 20 mM NH4OH, followed by four washes with PBS. For HS-degradation assays, ECM coated dishes were incubated with 200 ng recombinant HPSE in 1 mL reaction mixture (10 mM buffer Phosphate-Citrate pH 6.0, 50 mM NaCl, 1 mM DTT, 1 mM CaCl2) containing HPSE inhibitors or DMSO control. Plates were incubated at 37° C. for 5 h, then assay medium collected and applied to a 0.9×30 cm Sepharose 6B size exclusion column. The Sepharose 6B column was eluted with PBS, and ^35S radioactivity of 0.2 mL fractions quantitated using a liquid scintillation analyzer (Packard BioScience). Digest assays with U87 cell lysates were carried out in a similar fashion, except plates were incubated for 18 h with cell extracts prepared from 1×10^6 U87 glioma cells lysed by 3× freeze/thaw cycles.
The compounds of the invention were assessed against HPSE degradation of bona fide HSPGs in a physiologically relevant ECM-like environment. Cultured bovine corneal […] cells secrete a subendothelial basement membrane material rich in HSPGs, and their growth in the presence of ^35SO4^2− results in ^35S radiolabeled HSPGs (Vlodavsky et al., Curr Protoc Cell Biol, Chapter 10, Unit 10, 4, 2001). H^35S chains attached to these HSPGs are detectable after solubilization by HPSE, with enzyme inhibition leading to a corresponding reduction of signal.

human platelet HPSE = target: T2, human platelet HPSE (Homo sapiens, UniProt Q9Y251); experiment: cABPP with fluorescence quantitation, platelet lysates, HPSE; assay type: biochemical; details: read-out: IC50 platelet HPSE inhibition
T2 construct: endogenous in cells; host or cells: human platelet lysates
T2 sequence (Q9Y251 158-543 limits assumed): T1 sequence (Q9Y251 158-543 limits assumed)
T2 sequence (Q9Y251 36-109 limits assumed): T1 sequence (Q9Y251 36-109 limits assumed)
Procedure: ABP labelling reactions were carried out in Mcllvaine buffer (pH 5.5), 300 mM NaCl. For recombinant proteins 200 fmol of EcGH2, BpHep, AcGH79, HPSE or proHPSE was used (20 nM in 10 μl final reaction volume). For labeling cell lysates, 4-20 μg total protein was used. Labeling reactions were initiated by the addition of ABP compounds 7, 8 or 9 to a final concentration of 100 nM (unless otherwise specified), before incubation for 30 min at 37° C. with shaking. Following labeling, samples were denatured by boiling with Laemmli buffer for 5 min and resolved by SDS-PAGE. Gels were scanned using Typhoon-5 laser scanner platform (Cytiva), using the λEX 635 nm laser and 670BP30 emission filter. For competitive ABPP (cABPP) experiments, protein mixtures were preincubated with inhibitor (or buffer only control) for 1 h at 37° C. with shaking, before the addition of 7 to a final concentration of 100 nM, and subsequent incubation for 30 min at 37° C. with shaking. SDS-PAGE and analysis steps were carried out as above. For quantitative measurements, fluorescently labeled band intensities were calculated using Imagequant (Cytiva), and normalized to the corresponding band in the inhibitor free control lane. cABPP plots were prepared and analyzed using SigmaPlot 14.0 (Systat).
Further cABPP studies were undertaken using platelet lysates to provide a more physiologically realistic environment. […]

HPSE [2] = target: T1, HPSE; experiment: cABPP Assay 1, recombinant HPSE; assay type: biochemical
HPSE [3] = target: T1, HPSE; experiment: X-ray crystallography, ligand soaking of HPSE crystals; details: crystal soaking
Text: Xray diffraction data were collected at 100 K at beamlines i03 (HPSE-2, HPSE-3, HPSE-4, EcGUSB-1, BpHep-3), i04 (AcGH79-2, BpHep-2) and i04-1 (Apo-AcGH79, AcGH79-1, AcGH79-3) of the Diamond Light Source UK. Reflections were autoprocessed using the XIA2 pipeline. Complexes were solved by directly refining against their unliganded structures where isomorphous, or else solved by molecular replacement with PHASER (search model PDB accessions: 5E98 (HPSE), 3VNY (AcGH79), 3K46 (EcGUSB), 5BWI (BpHep)). […] Ligand coordinates were built using jLigand. Diagrams were generated using PyMOL.
HPSE—Well diffracting crystals of HPSE were obtained by the sitting-drop vapor-diffusion method at 20° C. using a well solution containing 0.1 M MES pH 5.5, 0.1 M MgCl2, 17% (w/v) PEG 3350, and a protein to well solution ratio of 200 nl:500 nl. Crystals typically appeared after 1 week. Inhibitor ligand complexes were obtained by transferring HPSE crystals to drops of well solution supplemented with 25% (v/v) ethylene glycol and 1-5 mM inhibitor. Crystals were incubated with ligand for ˜2-4 h, then directly harvested and flash-cooled in LN2 for data collection.
To better understand the molecular basis of interaction between our inhibitors and their targets, we turned to X-ray crystallography, using ligand soaking to derivatize enzymes in crystallo.

U87 glioblastoma cells = experiment: Matrigel invasion assay; assay type: cell-based, human; details: 20 μM inhibitor, 4 h
Procedure: The Matrigel invasion assay was used to assess the effects of the compounds of the invention on cancer cell aggression. This is an in cellulo model of cell invasion through a HSPG rich basement membrane. The ability of cells to migrate through transwell inserts coated with Matrigel (an ECM secretion from Engelbreth-Holm-Swarm mouse sarcoma cells) correlates well with their in vivo invasive potential (Hall et al., Methods Mol Biol, 1070, 1-11 (2014)).
1×10^5 U87 cells in 200 μL DMEM media (without serum) were seeded onto the top chamber of a Matrigel-coated Boyden transwell filter, alongside 20 μM HPSE inhibitor (or PBS control). Cells in the upper chamber were separated by Matrigel from a lower chamber containing 600 μL DMEM, supplemented with 10% FBS. Plates were incubated at 37° C. for 4 h, before fixing cells in 4% (v/v) paraformaldehyde, and staining with 0.5% (w/v) crystal violet. Matrigel and non-migrating cells in the upper side of the Boyden filter were removed by swabbing, then invading cells on the bottom side of the transwell filter imaged for analysis. 10 randomly selected microscopic fields were recorded, and cell invasion calculated using ImageJ, by quantitating the percentage of the field stained by crystal violet. Graphs were plotted using RStudio.
The Matrigel invasion assay was used to assess the effects of the compounds of the invention on cancer cell aggression. […]

HPSE [4] = target: T1, HPSE; experiment: Fondaparinux cleavage assay; assay type: biochemical

## CC(=O)N[C@H]1[C@@H](O[C@H]2[C@H](O)[C@@H](O)[C@@H]3O[C@@H]3[C@@H]2C(=O)O)O[C@H](COS(=O)(=O)O)[C@@H](O)[C@@H]1O [Compound 3, 4-O-(2-N-acetyl-2-deoxy-6-O-sulfo-D-glucopyranosyl)-glucurono-cyclophellitol]
HPSE [1]; 200 ng recombinant HPSE, pH 6.0, 5 h
  inhibition of HPSE degradation of 35S-labelled HSPGs: robust, dose dependent inhibition
HPSE [1]; HSPG digest, recombinant HPSE
  concentration giving comparable levels of inhibition: 1 µM
Human platelet HPSE
  IC50: ~56 nM
HPSE [2]; 1 h preincubation at 37° C., pH 5.5, 100 nM ABP 7
  HPSE inhibition (abrogation of labelling by ABP 7): inhibited HPSE at nanomolar concentrations
HPSE [2]; cABPP Assay 1
  potency against HPSE relative to other compounds: greater potency against HPSE than 2 and 4
HPSE [3]
  binding mode in HPSE active site cleft: covalent linkages between their pseudo-anomeric carbons and the enzyme nucleophile Glu343
U87 glioblastoma cells
  Matrigel invasion: significantly reduced Matrigel invasion
HPSE [4]
  fold more potent than reference inhibitors #98 (10) and OGT2115 (11): approximately 2 fold
